Assay results: patent publication US10414797B2, “Gelatinase inhibitors and use thereof” (Iproteos S.L, priority 2015, dated 2019)

Tests used:
MMP-2 = MMP-2 (Homo sapiens (Human), UniProt P08253); assay: MMP-2 inhibition assay (fluorimetric, DQ gelatin substrate); format: biochemical; conditions: recombinant MMP-2 (CHO cells) 85 ng/mL, DQ gelatin 50 μg/mL, 2 hours at room temperature, pH 7.6
Method: (§1) All the experiments were done in 1× reaction buffer, which was obtained from a 10× reaction buffer solution. The content of the 10× reaction buffer was: 50 mL of 0.5 M Tris-HCl, 1.5 M NaCl, 50 mM CaCl2 and 2 mM sodium azide at pH 7.6. To obtain the 1× reaction buffer 4 mL of the 10× reaction buffer were diluted in 36 mL of H2O.
Recombinant MMP-2 expressed in Chinese hamster ovary (CHO) cells was obtained from Merck-Millipore (catalog number PF023-5UG). DQ gelatin from pig skin fluorescein conjugated (MMP-2 substrate) was obtained from Life Technologies (catalog number E12055).
Preparation of the MMP-2 for the activity assay: MMP-2 was provided as a stock solution (0.1 mg/mL). The enzyme was diluted in 1× reaction buffer to a final concentration of 5 μg/mL.
Preparation of the DQ gelatin (substrate) solution for the activity assay: the solid form of the substrate was dissolved in water in order to obtain a stock solution of 1 mg/mL.
Procedure: The enzymatic assays were performed in 96-well microtiter plate, which allowed simultaneous monitoring of multiple reactions. For each reaction, 86.3 μL of 1× reaction buffer (pH 7.6), 1.7 μL of MMP-2 (final concentration 85 ng/mL) and 2 μL of the corresponding new compound were added to each well. A stock solution of new compound was prepared in DMSO (100 mM), and dilutions were prepared from this stock solution with DMSO. Finally, to the mixture contained in each well 10 μL of the substrate were added (final concentration 50 μg/mL). The reaction was incubated for 2 hours at room temperature in an orbital shaker (100 rpm).
The inhibitory activity of the new compound was measured fluorimetrically. The excitation and emission wavelengths were 483 and 525 nm, respectively.
Inhibitory activity at several concentration points (ranging from 100 pM to 200 μM MMP) were measured for each compound. The inhibitory activity on MMP-2 and MMP-9 was calculated according to eq 1. For each new compound, the fluorescence in the presence (a) and in the absence (b) of the corresponding MMP was measured. The maximum fluorescence (0% inhibitory activity) was obtained from a sample of the corresponding MMP in the absence of inhibitory compounds. To estimate the inhibitory potency of the novel compounds, activities were plotted against the log concentration of the compound, adjusting to a sigmoid curve using GraphPad Prism software, and the IC50 value, defined as the concentration of compound required to inhibit 50% of the corresponding MMP activity, was determined from resulting curve.
a corresponds to fluorescence intensity in the presence of substrate+test compound+MMP
b corresponds to the fluorescence intensity in the presence of substrate+tested compound
c corresponds to the fluorescence intensity in the presence of substrate+MMP
d corresponds to the fluorescence intensity of the presence of substrate

MMP-3 = MMP-3 (Homo sapiens (Human), UniProt P08254); assay: MMP-3 inhibition assay (fluorogenic peptide substrate); format: biochemical; conditions: recombinant MMP-3 7.7 nM, Mca-RPKPVE-Nval-WRK(Dnp)-NH2 10 μM, 4 hours at room temperature; tested at 1, 10, 100 and 200 μM
Method: as §1
Recombinant MMP-3 expressed in E. Coli was obtained from Merck-Millipore (catalog number 44217). Mca-RPKPVE-Nval-WRK(Dnp)-NH2 (fluorogenic peptide substrate) was obtained from R&D Systems (catalog number ES002).
Preparation of the MMP-3 for the activity assay: MMP-3 was provided as a stock solution (0.1 mg/mL). The enzyme was diluted in water to a final concentration of 0.005 mg/mL.
MMP-3 peptide substrate was provided as a stock solution in DMSO (4.5 mM). For the assay, the substrate was diluted 1× reaction buffer to a concentration of 100 μM.
Procedure: The enzymatic assays were performed in 96-well microtiter plate, which allowed simultaneous monitoring of multiple reactions. For each reaction, 84.6 μL of 1× reaction buffer (pH 7.6), 3.4 μL of MMP-3 (final concentration 7.7 nM) and 2 μL of the corresponding new compound were added to each well. A stock solution of new compound was prepared in DMSO (100 mM), and dilutions were prepared from this stock solution with DMSO. Finally, to the mixture contained in each well 10 μL of the substrate were added (final concentration 10 μM). The reaction was incubated for 4 hours at room temperature in an orbital shaker (90 rpm).
The inhibitory activity of the new compound was measured fluorimetrically. The excitation and emission wavelengths were 320 and 405 nm, respectively.
Inhibitory activity at several concentration points (1, 10, 100 and 200 μM) were measured for each compound. The inhibitory activity on MMP-1, MMP-3 and MMP-7 was calculated according to eq 1 and The IC50 value was calculated as explained above for MMP-2 and MMP-9.

[1] = Parallel artificial membrane permeability assay (PAMPA), Blood-Brain Barrier; format: in vitro ADME; conditions: initial concentration 200 μM, pH 7.4, 4 hours; for Papp at 4 h, 200 µM: pig, read-out: Effective permeability Pe
Method: Parallel Artificial Membrane Permeability Assay (PAMPA)
Parallel artificial membrane permeability assay (PAMPA) described in Kansy et al., J. M. Chem. 1998; 41(7):1007-10 was used here to determine the capacity of compounds to cross the Blood-Brain Barrier (BBB) by passive diffusion (Di L et al., Eur. J. Med. Chem. 2003; 38(3):223-32). The effective permeability (Pe) of the compounds was measured at an initial concentration of 200 μM. The buffer solution was prepared from a commercial concentrated one following the manufacturer's instructions. pH was adjusted to 7.4 using a 0.5 M NaOH solution. A stock solution of new compound was prepared in DMSO and diluted with buffer solution to a final 200 μM concentration (0.5% DMSO content). The PAMPA sandwich was separated and each donor well was filled with […] of the compound solution. The acceptor plate was placed into the donor plate, ensuring that the underside of the membrane was in contact with buffer. 4 μL of the mixture of phospholipids (20 mg/ml) in dodecane was added to the filter of each well, and 200 μL of buffer solution was added to the each acceptor well. The plate was covered and incubated at room temperature in a saturated humidity atmosphere for 4 hours under orbital agitation at 100 rpm. After 4 hours, the contents of the acceptor and donor compartments were analyzed by HPLC: 150 μL of each well from the donor plate and 150 μL of each well from the acceptor plate were transferred to HPLC vials, injecting each sample into a reverse-phase C18 column (150 mm×4.6 mm×5 μm, 100 Å) (100 μL/injection from the acceptor wells, 10 μL/injection from the donor wells and for t0 references). Transport was also confirmed using mass spectrometry (MALDI-TOF).
The phospholipid mixture used was a porcine polar brain lipid extract, provided by Avanti polar lipids, with the following composition: 12.6% phosphatidylcholine (PC), 33.1% phosphatidylethanolamine (PE), 18.5% phosphatidylserine (PS), 4.1% phosphatidylinositol (PI), 0.8% phosphatidic acid and 30.9% of other compounds.
The effective permeability (Pe) after 4 hours was calculated using equation 2 and the percentage of transport (T %) was calculated using equation 3: […]
Ca(t) is the compound concentration in the acceptor well at time t
And Cd(t0) is the compound concentration in the donor well at t0.

Sequence of MMP-2 (P08253 110-660): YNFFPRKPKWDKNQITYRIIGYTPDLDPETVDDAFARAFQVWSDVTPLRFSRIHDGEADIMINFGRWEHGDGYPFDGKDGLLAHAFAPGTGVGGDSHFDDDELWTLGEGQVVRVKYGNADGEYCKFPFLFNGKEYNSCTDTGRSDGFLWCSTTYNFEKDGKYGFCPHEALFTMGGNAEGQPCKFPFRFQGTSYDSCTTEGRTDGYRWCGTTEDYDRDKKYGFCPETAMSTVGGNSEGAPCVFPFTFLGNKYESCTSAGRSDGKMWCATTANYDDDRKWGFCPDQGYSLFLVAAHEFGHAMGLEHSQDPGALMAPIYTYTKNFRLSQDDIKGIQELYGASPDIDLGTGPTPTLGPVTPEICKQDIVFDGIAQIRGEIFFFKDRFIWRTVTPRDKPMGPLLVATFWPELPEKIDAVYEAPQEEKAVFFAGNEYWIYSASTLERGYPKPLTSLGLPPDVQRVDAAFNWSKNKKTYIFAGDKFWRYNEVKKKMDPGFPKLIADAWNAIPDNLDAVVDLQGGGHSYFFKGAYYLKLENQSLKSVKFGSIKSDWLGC
Sequence of MMP-3 (P08254 100-477): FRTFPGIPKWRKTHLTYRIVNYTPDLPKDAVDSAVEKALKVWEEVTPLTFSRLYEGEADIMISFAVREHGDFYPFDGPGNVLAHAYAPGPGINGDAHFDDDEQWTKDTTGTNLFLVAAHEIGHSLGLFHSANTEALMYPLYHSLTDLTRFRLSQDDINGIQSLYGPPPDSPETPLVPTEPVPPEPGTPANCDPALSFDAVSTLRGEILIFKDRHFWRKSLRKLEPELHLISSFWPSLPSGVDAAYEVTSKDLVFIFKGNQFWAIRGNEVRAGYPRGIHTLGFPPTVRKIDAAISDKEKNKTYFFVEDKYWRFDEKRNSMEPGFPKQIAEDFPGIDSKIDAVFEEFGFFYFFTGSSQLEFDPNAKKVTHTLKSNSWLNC

| Compound | IC50 (MMP-2) [µM] | IC50 (MMP-3) [µM] | percentage of transport % T [1] [%] | Papp at 4 h, 200 µM [1] [nm/s] |
| --- | --- | --- | --- | --- |
| CCCCCC(=O)N1CCC[C@H]1C(=O)N(C)[C@H](C(=O)N[C@@H](CCNC(=O)c1cc(F)cc(F)c1)C(=O)NO)C(C)CC (stereo partly drawn) [Example 3, (2S)—N-[(1S)-1-[[(1S)-3-[(3,5-difluorobenzoyl)amino]-1-(hydroxycarbamoyl)propyl]carbamoyl]-2-methyl-butyl]-1-hexanoyl-N-methyl-pyrrolidine-2-carboxamide] | 0.081 | 25.4 | 9.3 | 23 |
| CCCC(=O)N1CCC[C@H]1C(=O)N(C)[C@H](C(=O)N[C@@H](CCNC(=O)c1cc(F)cc(F)c1)C(=O)NO)C(C)CC (stereo partly drawn) [Example 4, (2S)-1-butanoyl-N-[(1S)-1-[[(1S)-3-[(3,5-difluorobenzoyl)amino]-1-(hydroxycarbamoyl)propyl]carbamoyl]-2-methyl-butyl]-N-methyl-pyrrolidine-2-carboxamide] | 0.062 | 13.3 | 3.1 | 7.4 |
| CCC(C)[C@@H](C(=O)N[C@@H](CCNC(=O)c1ccc(F)cc1)C(=O)NO)N(C)C(=O)[C@@H]1CCCN1C(C)=O (stereo partly drawn) [Example 1, (2S)-1-acetyl-N-[(1S)-1-[[(1S)-3-[(4-fluorobenzoyl)amino]-1-(hydroxycarbamoyl)propyl]carbamoyl]-2-methyl-butyl]-N-methyl-pyrrolidine-2-carboxamide] | 0.202 | 30.1 | 0.4 | 0.94 |
| CCC(C)[C@@H](C(=O)N[C@@H](CCNC(=O)c1cc(F)cc(F)c1)C(=O)NO)N(C)C(=O)[C@@H]1CCCN1C(C)=O (stereo partly drawn) [Example 2, (2S)-1-acetyl-N-[(1S)-1-[[(1S)-3-[(3,5-difluorobenzoyl)amino]-1-(hydroxycarbamoyl)propyl]carbamoyl]-2-methyl-butyl]-N-methyl-pyrrolidine-2-carboxamide] | 0.242 | 19.2 | 0.8 | 2 |

Continued, values first:

| IC50 (MMP-2) [µM] | IC50 (MMP-3) [µM] | percentage of transport % T [1] [%] | Papp at 4 h, 200 µM [1] [nm/s] | Compound |
| --- | --- | --- | --- | --- |
| 0.159 | 22.5 | 19.0 | 113 | CCCCCC(=O)N1CC(F)(F)C[C@H]1C(=O)N(C)[C@H](C(=O)N[C@@H](CCNC(=O)c1cc(F)cc(F)c1)C(=O)NO)C(C)CC (stereo partly drawn) [Example 7, (2S)—N-[(1S)-1-[[(1S)-3-[(3,5-difluorobenzoyl)amino]-1-(hydroxycarbamoyl)propyl]carbamoyl]-2-methyl-butyl]-4,4-difluoro-1-hexanoyl-N-methyl-pyrrolidine-2-carboxamide] |
| 0.362 | 3.2 | 9.9 | 52 | CCC(C)[C@@H](C(=O)N[C@@H](CCNC(=O)c1cc(F)cc(F)c1)C(=O)NO)N(C)C(=O)[C@@H]1CCCN1C(=O)CCCOc1ccccc1 (stereo partly drawn) [Example 9, (2S)—N-[(1S)-1-[[(1S)-3-[(3,5-difluorobenzoyl)amino]-1-(hydroxycarbamoyl)propyl]carbamoyl]-2-methyl-butyl]-N-methyl-1-(4-phenoxybutanoyl)pyrrolidine-2-carboxamide] |
| 0.974 | 3.81 | 9.0 | 47 | CCCC(CCC)C(=O)N1CCC[C@H]1C(=O)N(C)[C@H](C(=O)N[C@@H](CCNC(=O)c1cc(F)cc(F)c1)C(=O)NO)C(C)CC (stereo partly drawn) [Example 8, (2S)—N-[(1S)-1-[[(1S)-3-[(3,5-difluorobenzoyl)amino]-1-(hydroxycarbamoyl)propyl]carbamoyl]-2-methyl-butyl]-N-methyl-1-(2-propylpentanoyl)pyrrolidine-2-carboxamide] |
| 0.037 | 160 | 13.6 | 76 | CCC(C)[C@@H](C(=O)N[C@@H](CCNC(=O)c1cc(F)cc(F)c1)C(=O)NO)N(C)C(=O)[C@@H]1CC(F)(F)CN1C(=O)CCCOc1ccccc1 (stereo partly drawn) [Example 10, (2S)—N-[(1S)-1-[[(1S)-3-[(3,5-difluorobenzoyl)amino]-1-(hydroxycarbamoyl)propyl]carbamoyl]-2-methyl-butyl]-4,4-difluoro-N-methyl-1-(4-phenoxybutanoyl)pyrrolidine-2-carboxamide] |
| 0.4 | 53.4 | 14.3 | 35 | CCCCCCCC(=O)N1CCC[C@H]1C(=O)N(C)[C@H](C(=O)N[C@@H](CCNC(=O)c1cc(F)cc(F)c1)C(=O)NO)C(C)CC (stereo partly drawn) [Example 6, (2S)—N-[(1S)-1-[[(1S)-3-[(3,5-difluorobenzoyl)amino]-1-(hydroxycarbamoyl)propyl]carbamoyl]-2-methyl-butyl]-N-methyl-1-octanoyl-pyrrolidine-2-carboxamide] |
